Results reported in US11566047B2, “Peptide or pharmaceutically acceptable salt thereof, or prodrug thereof” (TOKYO UNIVERSITY OF PHARMACY & LIFE SCIENCES, priority 2016, dated 2023).
R111 = not defined here

System: anterior tibial muscles of mdx mice
Assay: Influence on anterior tibial muscles of Duchenne muscular dystrophy model mdx mice (muscle weight)
Assay type: in vivo
Settings: mdx male mice aged 5 weeks; 40 μL of 0.75 mM intramuscular, again after 2 weeks; necropsy after further 4 weeks; vs saline leg; average of three mice
Experimental: Regarding PDM-46 prepared in Synthesis Example 18, evaluation was performed by the following method in order to check the muscle mass increasing effect in vivo.
PDM-46 was dissolved in saline to become 0.75 mM. 40 μL of PDM-46 was intramuscularly administered into the left leg anterior tibial muscles of anesthetized mdx male mice aged 5 weeks (purchased from CLEA Japan, Inc.) (as a control, 40 μL of saline was intramuscularly administered into the right leg anterior tibial muscles). After 2 weeks, the same amount of PDM-46 was administered to the same site again. After further 4 weeks, the mice were subjected to necropsy, the anterior tibial muscles were excised from the both legs, and the weight thereof was measured.

Substance: R^111-WYIESIKIQIISKLRL-NH2 (R111-WYIESIKIQIISKLRL-NH2; reading uncertain; also: printed as R^111-WYIESIKIQIISKLRL-NH2) [PDM-46, R^111 = group of Formula (4), drawing 8]
- increase of muscle mass of anterior tibial muscles in terms of weight: about 13%
